{
  "source": "patent EP0039085A1",
  "about": "“Process for increasing the solubility of aromatic systems” (Langhals, Heinz, Dr., priority 1980, dated 1981)",
  "key": {"[1]": {"assay": "Absolute fluorescence quantum yield", "format": "physicochemical"}, "[2]": {"assay": "Solubility in organic solvents: effect of tert-butyl substitution", "format": "physicochemical", "conditions": "for Löslichkeitssteigerung um einen Faktor: relative to unsubstituted Rubicen (I)", "text": "Der Einfluß der Substitution mit tert.-Butylgruppen wurde an folgenden Systemen untersucht."}},
  "data": [
    {"molecule": "CC(C)(C)c1ccccc1N1C(=O)c2ccc3c4ccc5c6c(ccc(c7ccc(c2c37)C1=O)c64)C(=O)N(c1ccccc1C(C)(C)C)C5=O", "note": "[Beispiel 3, N,N'-Di-(2-tert.-butyl)-perylen-3,4,9,10-tetracarbonsäure-diimid]", "values": [
      {"measurement": "Fluoreszenzquantenausbeute (absolut) η", "setting": "[1]; Chloroform", "value": "1,0"},
      {"measurement": "Fluoreszenzquantenausbeute (absolut) η", "setting": "[1]; Dimethylformamid (DMF)", "value": "0,94"}
    ]},
    {"molecule": "CC(C)(C)c1ccc(N2C(=O)c3ccc4c5ccc6c7c(ccc(c8ccc(c3c48)C2=O)c75)C(=O)N(c2ccc(C(C)(C)C)cc2)C6=O)cc1", "note": "[Beispiel 4, N,N'-Di-(4-tert.-butylphenyl)-perylen-3,4,9,10-tetra-carbonsäurediimid]", "values": [
      {"measurement": "Fluoreszenzquantenausbeute (absolut) η", "setting": "[1]; Dimethylformamid (DMF)", "value": "0,88"}
    ]},
    {"molecule": "O=C1c2ccc3c4ccc5c6c(ccc(c7ccc(c2c37)C(=O)N1c1ccccc1)c64)C(=O)N(c1ccccc1)C5=O", "note": "[III, reference compound]", "values": [
      {"measurement": "Löslichkeit", "setting": "[2]; in organischen Lösungsmitteln", "value": "sehr geringe"}
    ]},
    {"molecule": "Di-tert.-butylrubicen", "values": [
      {"measurement": "Löslichkeitssteigerung um einen Faktor", "setting": "[2]; in n-Hexan bei Zimmertemperatur", "value": "ca. 100"},
      {"measurement": "Löslichkeitssteigerung um einen Faktor", "setting": "[2]; in Äthanol bei Zimmertemperatur", "value": "ca. 100"}
    ]},
    {"molecule": "Tetra-tert.-butylrubicen", "values": [
      {"measurement": "erhöhte die Löslichkeit um einen Faktor", "setting": "[2]; solvent not restated (preceding sentence: Äthanol und n-Hexan bei Zimmertemperatur), relative to Rubicen", "value": "ca. 10"}
    ]}
  ]
}
